Measurements: paper PMC8026324, “In Vitro Antiplasmodial, Heme Polymerization, and Cytotoxicity of Hydroxyxanthone Derivatives” (Journal of Tropical Medicine, 2021)
Like-named read-outs stand apart in the source and are kept apart here.

How the values were obtained:
[1] = tested on: Plasmodium falciparum 3D-7 (chloroquine-sensitive strain); assay: In vitro antiplasmodial activity assay, microscopic method, strain 3D-7; format: cell-based; conditions: Plasmodium falciparum
Protocol: (§1) The test of antiplasmodial activity began with the culture of P. falciparum 3D-7 and FCR-3 using the modified Trager and Jensen method. The plasmodium was cultured in human O red blood cells diluted to 3% haematocrit in RPMI 1640 medium complemented with 10% human O serum. The medium was made by adding 10.43 g of powder RPMI 1640, 6 g HEPES, 2 g NaHCO3, 25 mg gentamycin, and sterile distilled water up to 1 L. The medium pH was adjusted so that it reached ±7.2. It was sterilized using a 0.22 μm filter and stored at 4°C. The complete plasmodium culture medium was made by adding human serum with a concentration of 10% in the medium. The plasmodium culture was incubated in candle jar in an incubator with a temperature of 37°C and was observed every 24 hours.
(§2) The plasmodium was synchronized to obtain the ring stage by adding 5% of D-sorbitol. The plasmodium was transferred from culture flask to a conical tube, and then it was centrifuged with a speed of 1000 rpm for 10 minutes. After the supernatant was disposed, the sterile 5% sorbitol was added and incubated for 10 minutes at a temperature of 37°C. The plasmodium suspension was centrifuged again; the supernatant was disposed and the plasmodium was washed by adding culture medium. Then, the plasmodium suspension was centrifuged again, and the supernatant was discarded, resulting in a plasmodium in ring stage only. The parasitemia was calculated from a thin blood preparation. The test used 1% parasitemia at 2% haematocrit in RPMI medium which complemented with 10% human O serum.
(§3) Each testing compound was dissolved in RPMI medium. The testing compound in various concentrations with volume of 100 μL was incorporated into the 96-well microplate, and then 100 μL of Plasmodium suspension was added. Each series of concentrations was replicated three times. The microplate was incubated at a temperature of 37°C for 72 hours. At the end of the incubation, a thin blood smear was made using 10% Giemsa stain and observed under a light microscope at 1000x magnification. The percentage of parasitemia (counting a minimum of 1,000 erythrocytes) was calculated from the preparation of thin blood and then used to calculate the percentage of plasmodium growth inhibition. […] Antiplasmodial activity is expressed as IC50, which is the concentration of a compound that is required for 50% inhibition of plasmodium growth. The IC50 value was calculated by probit analysis using SPSS software (IBM Corp., Chicago). The lower the IC50 value obtained, the greater the antiplasmodial activity.

[2] = tested on: Plasmodium falciparum FCR-3 (chloroquine-resistant strain); assay: In vitro antiplasmodial activity assay, microscopic method, strain FCR-3; format: cell-based; conditions: Plasmodium falciparum
Protocol: as §1, §2, §3

[3] = tested on: formation of β-hematin (heme polymerization); assay: In vitro heme polymerization inhibitory activity (HPIA) assay; format: biochemical
Protocol: The heme polymerization inhibitory activity (HPIA) was conducted according to Basilico et al.'s modified method. The 100 μL of 1 mM hematin in 0.2 M NaOH was added into a microtube. […] Distilled water was used as a negative control. The 50 μL solution of glacial acetic acid (pH 2.6) was added into the microtube to initiate the polymerization reaction and incubated at a temperature of 37°C for 24 hours. Microtubes were centrifuged at 8000 rpm for 10 minutes and the supernatant was discarded and then washed three times using the 200 μL dimethyl sulfoxide (DMSO).Then, the deposition of the hematin crystal was dissolved with 200 μL of 0.1 M NaOH and 100 μL of solution was added into the 96-well microplate.
Absorbance was read using ELISA reader at λ 405 nm. A standard curve was made to illustrate the relationship between the concentration of hematin and its absorbance. The various concentrations of hematin (250; 125; 62.5; 31.25; 15.6; 7.8; and […]) were used to make the standard curve. The heme polymerization inhibition was expressed as IC50, which is the concentration of testing compounds that can inhibit 50% of the formation of β-hematin. The IC50 value was calculated by probit analysis using SPSS software (IBM Corp., Chicago).

[4] = tested on: formation of β-hematin (heme polymerization); conditions: read-out: IC50 of chloroquine for heme polymerization inhibition, reference value; threshold reference value; cited from earlier work
[5] = read-out: Growth inhibition of P. falciparum Strain 3D-7
[6] = FCR3, read-out: Growth inhibition of P. falciparum Strain FCR-3

CCN(CC)CCCC(C)Nc1ccnc2cc(Cl)ccc12 (stereo not drawn) [Chloroquine, reference compound]
IC50 ([1]; 72 h, read-out: IC50 on P. falciparum 3D-7): 0.01 ± 0.001 µM
inhibition at 0.008 µM [1, 5]: 54.4 ± 12.4%
inhibition at 0.016 µM [1, 5]: 96.4 ± 1.13%
inhibition at 0.023 µM [1, 5]: 96.6 ± 1.33%
inhibition at 0.029 µM [1, 5]: 97.49 ± 0.517%
inhibition at 0.037 µM [1, 5]: 97.77 ± 0.69%
IC50 ([2]; FCR3, 72 h, read-out: IC50 on P. falciparum FCR-3): 0.11 ± 0.052 µM
inhibition at 0.008 µM [2, 6]: 18.7 ± 9.23%
inhibition at 0.016 µM [2, 6]: 78.6 ± 4.51%
inhibition at 0.023 µM [2, 6]: 79.9 ± 3.86%
inhibition at 0.029 µM [2, 6]: 82.6 ± 2.94%
inhibition at 0.037 µM [2, 6]: 84.2 ± 2.45%
IC50 ([3]; 24 hours, 37°C, glacial acetic acid pH 2.6): 1480 µM
Inhibition of β-hematin ([3]; compound 0.601 mM): 29.080%
β-Hematin formed ([3]; compound 0.601 mM): 77.787 mM
Inhibition of β-hematin ([3]; compound 1.221 mM): 47.315%
β-Hematin formed ([3]; compound 1.221 mM): 57.787 mM
Inhibition of β-hematin ([3]; compound 2.423 mM): 56.379%
β-Hematin formed ([3]; compound 2.423 mM): 47.845 mM
Inhibition of β-hematin ([3]; compound 4.846 mM): 79.906%
β-Hematin formed ([3]; compound 4.846 mM): 22.040 mM
Inhibition of β-hematin ([3]; compound 9.692 mM): 88.604%
β-Hematin formed ([3]; compound 9.692 mM): 12.500 mM
IC50 [4]: 37500 µM
